Test results taken from US7745641B2, “Nitrogen-containing heterocyclic compound” (Kyowa Hakko Kirin Co., Ltd., priority 2005, dated 2010).

How the values were obtained:
HCT116 cells = assay: Evaluation of Aurora inhibitory activity by analysis of nuclear morphology (enlarged lobed nuclei); format: cell-based, human; settings: concentration in the range of 0.1 to 1 μmol/L, 17 hours contact; optimal concentration different in each compound
Method: 281 (2003)]. Consequently, enlarged lobed nuclei-inducibility of test compounds for HCT116 cells was evaluated. McCoy's 5A culture medium (GIBCO, Catalogue No. 16600-082) containing 10% bovine fetus serum (GIBCO, Catalogue No. 10099-141) was used for the cultivation of the cells. HCT116 cells were inoculated and, 24 hours later, each test compound was added thereto.

Flt-3 = target: T1, Flt-3 (Homo sapiens, UniProt P36888); assay: Flt-3 inhibitory activity, time-resolved fluoroimmunoassay; format: biochemical; settings: 10 μmol/L test compound
T1 construct: His tag; purchased Upstate Inc. 14-500
T1 sequence (P36888 564-993 limits assumed): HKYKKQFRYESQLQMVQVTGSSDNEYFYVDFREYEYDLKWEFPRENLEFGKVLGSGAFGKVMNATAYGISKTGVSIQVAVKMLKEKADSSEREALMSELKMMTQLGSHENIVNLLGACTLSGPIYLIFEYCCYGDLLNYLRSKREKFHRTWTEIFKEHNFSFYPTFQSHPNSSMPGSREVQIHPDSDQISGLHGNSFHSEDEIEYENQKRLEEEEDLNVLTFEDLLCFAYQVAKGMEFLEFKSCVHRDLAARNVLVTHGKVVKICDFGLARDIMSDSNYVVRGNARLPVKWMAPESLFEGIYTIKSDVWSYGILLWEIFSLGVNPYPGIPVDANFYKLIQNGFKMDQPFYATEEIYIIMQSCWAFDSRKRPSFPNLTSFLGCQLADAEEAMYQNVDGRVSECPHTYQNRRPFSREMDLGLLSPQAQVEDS
Method: Flt-3 inhibitory activity was determined by a method described below.
Biotinylated polyglutamic acid-tyrosine peptide (Nihon Schering K.K., Catalogue No. 61GT0BAA) used as a substrate was immobilized on a 96-well plate (FIA-PLATE BLACK 96 well FALT-BOTTOM HIGH BINDING, Greiner Bio-one Co., Ltd., Catalogue No. 655077) coated with NeutroAvidin (Pierce, Catalogue No. 31000) and was then blocked with 0.25% gelatin to yield a plate for the determination of kinase reaction. A solution containing, at final concentrations, 8 μg/L His-tagged protein-fused Flt-3 (Upstate Inc., Catalogue No. 14-500), 20 mmol/L Tris-Cl (pH 7.5), 0.04% 2-mercaptoethanol, 0.04 mmol/L Na3VO4, 20 mmol/L MgCl2, 5 mmol/L MnCl2, 10 μmol/L ATP, 0.1% BSA, 0.1% DMSO, and […] test compound was prepared. Subsequently, 50 μL of the solution was placed in each of the wells of the plate for the determination of kinase reaction, followed by enzymatic reaction at 24° C. for 60 minutes. The plate was washed with TBS-T [10 mmol/L Tris-Cl (pH 7.5), 150 mmol/L NaCl, and 0.05% Tween 20 (Bio-Rad Laboratories Inc., Catalogue No. 170-6531)] four times, and allowed to react with europium-labeled anti-phosphotyrosine antibody (PerkinElmer Inc. Catalogue No. AD0160) at room temperature for 60 minutes. The plate was further washed with TBS-T four times. Subsequently, time-resolved fluoroimmunoassay was performed (excitation wavelength: 340 nm, measuring wavelength: 615 nm). The relative activity (%) of a well to which the enzyme and the test compound were added was calculated using the value of a well to which the test compound was not added being 100% and the value of a well to which the enzyme and the test compound were not added being 0%. The Flt-3 inhibitory activity (%) of the test compound was determined by subtracting the relative activity (%) from 100.

Aurora = Aurora inhibitory activity using Western blotting method (phosphorylation of histone H3 Ser10); format: cell-based, human; settings: 10 μmol/L, 30 minutes, HCT116 cells accumulated in M phase with Nocodazole
Description: It is known that Aurora phosphorylates Ser10 of histone H3 in the G2/M phase during the cell cycle [Molecular and Cellular Biology, Vol. 22, p. 874 (2002)]. Consequently, the inhibition of phosphorylation of histone H3 Ser10 in cells was detected by a Western blotting method using human colon cancer cell line HCT116 cells accumulated in the M phase. McCoy's 5A culture medium (GIBCO, Catalogue No. 16600-082) containing 10% bovine fetus serum (GIBCO, Catalogue No. 10099-141) was used for the cultivation of the cells. The HCT116 cells were inoculated and then treated with Nocodazole (Sigma Corporation, Catalogue No. M-1404) so that the cell cycle was accumulated to the M phase. A test compound (final concentration: 10 μmol/L) was added thereto, and the cells were incubated at 37° C. for 30 minutes. The cells were then recovered and washed with a phosphate buffered saline (PBS) once. The cells were suspended in a cell-solubilizing solution (50 mmol/L 2-[4-(2-hydroxyethyl)-1-piperazinyl]ethanesulfonic acid (HEPES) (pH 7.4), 150 mmol/L NaCl, 1 mmol/L ethylenediamine-N,N,N′,N′-tetraacetic acid disodium salt dihydrate (EDTA), 2.5 mmol/L ethylene glycol bis(2-aminoethylether)-N,N,N′,N′-tetraacetic acid (EGTA), 0.1% Tween-20 (Bio-Rad Laboratories Inc., Catalogue No. 170-6531), 10% β-glycerophosphate, 1 mmol/L NaF, 0.1 mmol/L Na3VO4, 1 mmol/L Pefabloc SC (Roche Diagnostics K.K., Catalogue No. 1 429 868), and Complete EDTA-free (Roche Diagnostics K.K., Catalogue No. 1 873 580)}, and the suspension was frozen and thawed. Subsequently, the supernatant obtained by centrifugal separation was used as a cell extraction solution. SDS-PAGE was performed using a 12.5% polyacrylamide gel under the condition that the amount of protein per sample was 30 μg in accordance with the method used by Laemmli et al. The protein was transferred onto a PVDF membrane (Millipore Corporation, Catalogue No. IPVH304F0) by a semi-dry method. The membrane was allowed to react with anti-phosphorylated histone H3 Ser10 antibody (Upstate Inc., Catalogue No. 06-570) used as a primary antibody, and an HRP-labeled anti-rabbit IgG antibody (Amersham biosciences, Catalogue No. NA934V) used as a secondary antibody. Subsequently, […] was detected using a SuperSignal West Pico chemiluminescence substrate (Pierce, Catalogue No. 34077).

human FGFR3 = target: T2, human FGFR3 (Homo sapiens, UniProt P22607); assay: Fibroblast growth factor receptor 3 (FGFR3) inhibitory activity, time-resolved fluoroimmunoassay; format: biochemical; settings: 10 μmol/L test compound
T2 construct: the intracellular domain (448-759 amino acids) of human FGFR3; made in house; host or cells: insect cells (baculovirus)
T2 sequence (P22607 448-759): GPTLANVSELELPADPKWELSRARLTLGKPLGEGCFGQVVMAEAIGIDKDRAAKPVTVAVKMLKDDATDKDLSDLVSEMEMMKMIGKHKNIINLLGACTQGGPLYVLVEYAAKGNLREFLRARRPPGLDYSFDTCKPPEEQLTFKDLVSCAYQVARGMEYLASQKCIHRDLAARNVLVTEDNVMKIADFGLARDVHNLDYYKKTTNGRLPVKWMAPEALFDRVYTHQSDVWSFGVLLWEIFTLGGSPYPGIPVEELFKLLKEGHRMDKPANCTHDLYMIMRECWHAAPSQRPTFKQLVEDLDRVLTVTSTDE
Method: In order to determine FGFR3 inhibitory activity, the following method was employed. FGFR3 was prepared by allowing baculovirus that expresses a protein in which glutathione S-transferase (GST) was fused to the N-terminal of the intracellular domain (448-759 amino acids) of human FGFR3 to infect insect cells. Biotinylated polyglutamic acid-tyrosine peptide (Nihon Schering K.K., Catalogue No. 61GT0BAA) used as a substrate was immobilized on a 96-well plate coated with NeutroAvidin (Pierce, Catalogue No. 31000) and was then blocked with 0.25% gelatin to yield a plate for the determination of kinase reaction A solution containing, at final concentrations, 8 μg/L GST-fused FGFR3 protein, 20 mmol/L Tris-Cl (pH 7.5), 0.04% 2-mercaptoethanol, 0.04 mmol/L Na3VO4, 20 mmol/L MgCl2, 5 mmol/L MnCl2, 10 mmol/L ATP, 0.1% bovine serum albumin (BSA; Sigma Corporation, Catalogue No. A4503), 0.1% dimethyl sulfoxide (DMSO), and 10 μmol/L test compound was prepared. Subsequently, 50 μL of the solution was placed in each of the wells of the plate for the determination of kinase reaction, followed by enzymatic reaction at 24° C. for 60 minutes. The plate was washed with TBS-T [10 mM Tris-Cl (pH 7.5), 150 mmol/L NaCl, and 0.05% Tween 20 (Bio-Rad Laboratories Inc., Catalogue No. 170-6531)] four times, and allowed to react with europium-labeled anti-phosphotyrosine antibody (PerkinElmer Inc. Catalogue No. AD0160) at room temperature for 60 minutes. The plate was further washed with TBS-T four times. Subsequently, DELFIA. Enhancement Solution (PerkinElmer Inc. Catalogue No. 1244-105) was added to the plate, and time-resolved fluoroimmunoassay was performed (excitation wavelength: 340 nm, measuring wavelength: 615 nm). The relative activity (%) of a well in which the test compound was added was calculated using the value of a well containing the enzyme and 0.1% DMSO being 100% and the value of a well not containing the enzyme being 0%. The FGFR3 inhibitory activity (%) of the test compound was determined by subtracting the relative activity (%) from 100.

[1] = test system: human-tumor-transplant mouse models; settings: cited from earlier work
[2] = test system: human-tumor-transplant rat models; settings: cited from earlier work

For COCCN(C)Cc1ccc2[nH]c(-c3cc(OC)c(OS(C)(=O)=O)c4c3C(=O)NC4)cc2c1 [Compound 455, 4-Methanesulfonyloxy-5-methoxy-7-{1H-5-[N-(2-methoxyethyl)methylaminomethyl]indol-2-yl}isoindolinone], the “ability of inducing enlarged lobed nuclei for HCT116 cells” value (HCT116 cells) was “show ability of inducing enlarged lobed nuclei”, the inhibition at 10 µM (Flt-3) was at least 50% and the “suppression of the phosphorylation of histone H3 Ser10 in HCT116 cells” value (Aurora) was “almost completely suppressed”. It also gave a melting point of 197 to 199 °C and an inhibition at 10 µM (human FGFR3) of at least 50%.
In the case of Nc1nc(Nc2ccc(S(N)(=O)=O)cc2)nn1C(=O)c1c(F)cccc1F [JNJ-7706621], the antitumor activity [1] is given as “exhibits an antitumor activity”.
For Cc1cc(Nc2cc(N3CCN(C)CC3)nc(Sc3ccc(NC(=O)C4CC4)cc3)n2)n[nH]1 [VX-680], the antitumor activity [2] is listed as “exhibits an antitumor activity” and the antitumor activity [1] is listed as “exhibits an antitumor activity”.
